Source: patent US5491155A, “Substituted thiadiazoles, compositions containing them and their use as antimicrobial and marine antifouling agents” (The Dow Chemical Company, priority 1994, dated 1996)
Converted amounts (≈) assume the structure as drawn. Read-outs that look alike come from different tables or passages of the source.

Key:
Pseudomonas aeruginosa = assay: MIC in nutrient agar, Pseudomonas aeruginosa (Pa); format: cell-based, Pseudomonas aeruginosa (ATCC 10145); settings: Pa, 48 hours, read-out: Minimum Inhibitory Concentration (MIC)
Method: (§1) The minimum inhibitory concentration (MIC) for the compounds listed in Table I is determined for bacteria, using nutrient agar, and 7 yeast and fungi, using malt yeast agar. A one percent solution of the test compound is prepared in a mixture of acetone and water.
(§2) Nutrient agar is prepared at pH 6.8, representing a neutral medium, and at pH 8.2, representing an alkaline medium. The nutrient agars are prepared by adding 23 g of nutrient agar to one-liter of deionized water. In addition, the alkaline medium is prepared by adjusting a 0.04M solution of N-(tris-(hydroxymethyl)methyl)glycine buffered deionized water with concentrated sodium hydroxide to a pH of 8.5.
(§3) The test tubes containing the agar are cooled in a water bath until the temperature of the agar is 48° C. Then, an appropriate amount of the one percent solution of the test compound is added (except in the controls where no compound is added) to the respective test tubes so that the final concentrations are 500, 250, 100, 50, 25, 10, 2.5, 1.0 and zero parts per million of the test compound in the agar, thus having a known concentration of test compound dispersed therein. The contents of the test tubes are then transferred to respective petri plates. After drying for 24 hours, the petri plates containing nutrient agar are inoculated with bacteria and those containing malt yeast agar are inoculated with yeast and fungi.
(§4) The inoculation with bacteria is accomplished by using the following procedure. Twenty-four hour-cultures of each of the bacteria are prepared by incubating the respective bacteria in tubes containing nutrient broth for 24 hours at 30° C. in a shaker. Dilutions of each of the 24 hour-cultures are made so that nine separate suspensions (one for each of the nine test bacteria) are made, each containing 10^8 colony forming units (CFU) per mL of suspension of a particular bacteria. Aliquots of 0.3 mL of each of the bacterial suspensions are used to fill the individual wells of Steer's Replicator. For each microbial suspension, 0.3 mL was used to fill three wells (i.e., three wells of 0.3 mL each) so that for the nine different bacteria, 27 wells are filled. The Steer's Replicator is then used to inoculate both the neutral and alkaline pH nutrient agar petri plates.
(§5) The inoculated petri plates are incubated at 30° C. for 48 hours and then read to determine if the test compound which is incorporated into the agar prevented growth of the respective bacteria.
(§6) Table II lists the bacteria, yeast and fungi used in the MIC test described above along with their respective American Type Culture Collection (ATCC) identification numbers.
(§7) In Tables III and IV, the MIC values of the compounds described in Table I as compared to the MIC of a standard commercial preservative (with 1-(3-chloroalkyl)-3,5,7-triaza-1-azoniaadamantane chloride as the active agent and referred to in Tables III and IV as "STANDARD I") are set forth for the bacteria organisms and yeast/fungi organisms which are listed in Table II.

Klebsiella pneumonias = assay: MIC in nutrient agar, Klebsiella pneumonias; format: cell-based, Klebsiella pneumonias (ATCC 8308); settings: Kp, 48 hours, read-out: Minimum Inhibitory Concentration (MIC)
Method: as §1, §2, §3, §4, §5, §6, §7

Staphylococcus aureus = assay: MIC in nutrient agar, Staphylococcus aureus; format: cell-based, Staphylococcus aureus (ATCC 6538); settings: Sa, 48 hours, read-out: Minimum Inhibitory Concentration (MIC)
Method: as §1, §2, §3, §4, §5, §6, §7

Trichoderma viride = assay: MIC in malt yeast agar, Trichoderma viride; format: cell-based, Trichoderma viride (ATCC 8678); settings: Tv; malt yeast agar; 30° C.; 72 hours for fungi; read-out: Minimum Inhibitory Concentration (MIC)
Method: as §1
(§8) Malt yeast agar is prepared by adding 3 g yeast extract and 45 g malt agar per liter of deionized water. The specific agar is dispensed in 30 mL aliquots into 25×200 mm test tubes, capped and autoclaved for 15 minutes at 115° C.
as §3
(§9) The inoculation with the yeast and fungi is accomplished as follows. Cultures of yeast and fungi are incubated for seven days on malt yeast agar at 30° C. These cultures are used to prepare suspensions by the following procedure. A suspension of each organism is prepared by adding 10 mL of sterile saline and 10 microliters of octylphenoxy polyethoxy ethanol to the agar slant of yeast or fungi. The sterile saline/octylphenoxy polyethoxy ethanol solution is then agitated with a sterile swab to suspend the microorganism grown on the slant. Each resulting suspension is diluted into sterile saline (1 part suspension: 9 parts sterile saline). Aliquots of these dilutions are placed in individual wells of Steer's Replicator and petri plates inoculated as previously described. The petri plates are incubated at 30° C. and read after 48 hours for yeast and 72 hours for fungi.
as §6, §7

Escherichia coli = assay: MIC in nutrient agar, Escherichia coli; format: cell-based, Escherichia coli (ATCC 11229); settings: Ec, 48 hours, read-out: Minimum Inhibitory Concentration (MIC)
Method: as §1, §2, §3, §4, §5, §6, §7

[1] = system: Pseudomonas aeruginosa (PRD-10); assay: MIC in nutrient agar, Pseudomonas aeruginosa (PRD-10); format: cell-based, Pseudomonas aeruginosa (ATCC 15442); settings: PRD, 48 hours, read-out: Minimum Inhibitory Concentration (MIC)
Method: as §1, §2, §3, §4, §5, §6, §7

Salmonella choleraesuis = assay: MIC in nutrient agar, Salmonella choleraesuis; format: cell-based, Salmonella choleraesuis (ATCC 10708); settings: Salmonella enterica, Sc, 48 hours, read-out: Minimum Inhibitory Concentration (MIC)
Method: as §1, §2, §3, §4, §5, §6, §7

Saccharomyces cerevisiae = assay: MIC in malt yeast agar, Saccharomyces cerevisiae; format: cell-based, Saccharomyces cerevisiae (ATCC 4105); settings: Sc, malt yeast agar, 30° C., 48 hours for yeast, read-out: Minimum Inhibitory Concentration (MIC)
Method: as §1, §8, §3, §9, §6, §7

Proteus vulgaris = assay: MIC in nutrient agar, Proteus vulgaris; format: cell-based, Proteus vulgaris (ATCC 881); settings: Pv, 48 hours, read-out: Minimum Inhibitory Concentration (MIC)
Method: as §1, §2, §3, §4, §5, §6, §7

Candida albicans = assay: MIC in malt yeast agar, Candida albicans; format: cell-based, Candida albicans (ATCC 10231); settings: Ca; malt yeast agar; 30° C.; 48 hours for yeast; read-out: Minimum Inhibitory Concentration (MIC)
Method: as §1, §8, §3, §9, §6, §7

Enterobacter aerogenes = assay: MIC in nutrient agar, Enterobacter aerogenes; format: cell-based, Enterobacter aerogenes (ATCC 13048); settings: Klebsiella aerogenes, Ea, 30° C., 48 hours, read-out: Minimum Inhibitory Concentration (MIC)
Method: as §1, §2, §3, §4, §5, §6, §7

Fusarium oxysporum = assay: MIC in malt yeast agar, Fusarium oxysporum; format: cell-based, Fusarium oxysporum (ATCC 48112); settings: Fo; malt yeast agar; 30° C.; 72 hours for fungi; read-out: Minimum Inhibitory Concentration (MIC)
Method: as §1, §8, §3, §9, §6, §7

Aureobasidium pullulan = assay: MIC in malt yeast agar, Aureobasidium pullulan; format: cell-based, Aureobasidium pullulan (ATCC 16622); settings: Ap; malt yeast agar; 30° C.; 72 hours for fungi; read-out: Minimum Inhibitory Concentration (MIC)
Method: as §1, §8, §3, §9, §6, §7

Penicillium chrysogenum = assay: MIC in malt yeast agar, Penicillium chrysogenum; format: cell-based, Penicillium chrysogenum (ATCC 9480); settings: Pc; malt yeast agar; 30° C.; 72 hours for fungi; read-out: Minimum Inhibitory Concentration (MIC)
Method: as §1, §8, §3, §9, §6, §7

Aspergillus niger = assay: MIC in malt yeast agar, Aspergillus niger; format: cell-based, Aspergillus niger (ATCC 16404); settings: An; malt yeast agar; 30° C.; 72 hours for fungi; read-out: Minimum Inhibitory Concentration (MIC)
Method: as §1, §8, §3, §9, §6, §7

Bacillus subtilis = assay: MIC in nutrient agar, Bacillus subtilis; format: cell-based, Bacillus subtilis (ATCC 8473); settings: Bs, 48 hours, read-out: Minimum Inhibitory Concentration (MIC)
Method: as §1, §2, §3, §4, §5, §6, §7

Row | Structure (SMILES) | MIC (Pseudomonas aeruginosa; pH 6.8, 30° C.) [µg/mL] | MIC (Pseudomonas aeruginosa; pH 8.2, 30° C.) [µg/mL] | MIC (Klebsiella pneumonias; pH 6.8, 30° C.) [µg/mL] | MIC (Klebsiella pneumonias; pH 8.2, 30° C.) [µg/mL] | MIC (Staphylococcus aureus; pH 6.8, 30° C.) [µg/mL] | MIC (Staphylococcus aureus; pH 8.2, 30° C.) [µg/mL] | MIC (Trichoderma viride) [µg/mL] | MIC (Escherichia coli; pH 6.8, 30° C.) [µg/mL] | MIC (Escherichia coli; pH 8.2, 30° C.) [µg/mL] | MIC ([1]; pH 6.8, 30° C.) [µg/mL] | MIC (Salmonella choleraesuis; pH 6.8, 30° C.) [µg/mL] | MIC (Saccharomyces cerevisiae) [µg/mL] | MIC (Proteus vulgaris; pH 6.8, 30° C.) [µg/mL] | MIC (Candida albicans) [µg/mL] | MIC (Enterobacter aerogenes; pH 6.8) [µg/mL] | MIC (Fusarium oxysporum) [µg/mL] | MIC (Aureobasidium pullulan) [µg/mL] | MIC (Penicillium chrysogenum) [µg/mL] | MIC (Aspergillus niger) [µg/mL] | MIC (Bacillus subtilis; pH 6.8, 30° C.) [µg/mL] | also measured
1 | N#CSCOc1nsnc1Cl [Example 6, 4-Chloro-3-thiocyanato-methyloxo-1,2,5-thiadiazole] | 50 (≈ 241 µM) | 50 (≈ 241 µM) | 25 (≈ 120 µM) | 25 (≈ 120 µM) | 25 (≈ 120 µM) | 25 (≈ 120 µM) | 25 (≈ 120 µM) | 25 (≈ 120 µM) | 25 (≈ 120 µM) | 100 (≈ 482 µM) | < 10 | < 10 | < 10 | < 10 | 50 (≈ 241 µM) | < 10 | < 10 | < 10 | < 10 | < 10 | MIC ([1]; pH 8.2, 30° C.): 100 µg/mL (≈ 482 µM); MIC (Salmonella choleraesuis; pH 8.2, 30° C.): 25 µg/mL (≈ 120 µM); MIC (Proteus vulgaris; pH 8.2, 30° C.): 25 µg/mL (≈ 120 µM); MIC (Enterobacter aerogenes; pH 8.2): 50 µg/mL (≈ 241 µM); MIC (Bacillus subtilis; pH 8.2, 30° C.): 25 µg/mL (≈ 120 µM)
2 | COc1nsnc1OCSC#N [Example 7, 4-Methoxy-3-thiocyanato-methyloxo-1,2,5-thiadiazole] | < 10 |  | < 10 |  | < 10 |  | 25 (≈ 123 µM) | 25 (≈ 123 µM) |  | 25 (≈ 123 µM) | 25 (≈ 123 µM) | < 10 | < 10 | 25 (≈ 123 µM) | 25 (≈ 123 µM) | < 10 | < 10 | < 10 | < 10 | < 10 | 
3 | N#CSCOc1nsnc1OCSC#N [Example 8, 3,4-Bis(thiocyanato-methyloxo)-1,2,5-thiadiazole] | 250 (≈ 960 µM) | 100 (≈ 384 µM) | 100 (≈ 384 µM) | 50 (≈ 192 µM) | 25 (≈ 96 µM) | 25 (≈ 96 µM) | 50 (≈ 192 µM) | 50 (≈ 192 µM) | 100 (≈ 384 µM) | 500 (≈ 1920 µM) | 25 (≈ 96 µM) | 25 (≈ 96 µM) | 25 (≈ 96 µM) | 50 (≈ 192 µM) | 250 (≈ 960 µM) | 25 (≈ 96 µM) | < 10 | < 10 | < 10 | < 10 | MIC ([1]; pH 8.2, 30° C.): 250 µg/mL (≈ 960 µM); MIC (Salmonella choleraesuis; pH 8.2, 30° C.): 50 µg/mL (≈ 192 µM); MIC (Proteus vulgaris; pH 8.2, 30° C.): 25 µg/mL (≈ 96 µM); MIC (Enterobacter aerogenes; pH 8.2): 250 µg/mL (≈ 960 µM); MIC (Bacillus subtilis; pH 8.2, 30° C.): 25 µg/mL (≈ 96 µM)
